Experimental data as given in patent US9937182B2, “Therapeutic strategies for the treatment of preeclampsia” (UNIVERSITY OF IOWA RESEARCH FOUNDATION, priority 2013, dated 2018).
Several values for one entry are separate records, joined by “and”; a condition that tells them apart may be missing. Identical values can stand only once. Entries after “also recorded” stand apart in the source; their conditions may differ.

Assays:
C57Bl/6J female mice = assay: Vasopressin infusion 0.24, 2.4 or 24 ng/hr during pregnancy, proteinuria and intrauterine growth restriction; assay type: in vivo; details: for fetal masses: dams infused with 24 ng/hr compared to 2.4 ng/hr vasopressin; for urine protein content: pregnant mice, GD17-GD18, vasopressin 0.24, 2.4, 24 ng/hr
Procedure: Method: Eighteen female C57BL/6J mice were obtained from the Jackson Laboratories. Subcutaneous osmotic minipumps (Alzet) were implanted to deliver vasopressin at 0.24, 2.4, or 24 ng/hr (six mice each group). After three days, mice were mated with wildtype C57BL/6J male mice for one night (thereby defining gestational day zero). On GD16, mice were placed into single-mouse metabolic cages (Nalgene) to collect urine for two consecutive nights. On GD18, mice were sacrificed to quantify and collect fetuses and placentas. Urine protein was assessed by commercially-available BCA assay (Pierce).

C57Bl/6J mice = assay: Vasopressin infusion (240 ng/hr) during pregnancy, preeclampsia-like phenotypes; assay type: in vivo
Procedure: Animal Studies: Female C57Bl/6J mice were obtained from Jackson Laboratories between 8-12 weeks of age. Osmotic minipumps infusing vasopressin (240 ng/hr) or saline vehicle were inserted into the subcutaneous space via incision between the scapulae. Following three days of recovery, females were mated with male C57Bl/6J mice. Presence of a vaginal plug indicated gestational day 0.5. Blood pressure was tracked before mating and throughout gestation by tail-cuff plethysmography. On gestational day 18, females were sacrificed for necropsy. Pup weight was recorded. Dam kidney sections were generated and imaged by electron microscopy by the University of Iowa Department of Pathology. All studies were approved by the University of Iowa Animal Care and Use Committee (ACURF #1211239).

[1] = system: 2°-branch mesenteric artery; assay: Mesenteric artery vascular reactivity (pressurized myography); assay type: cell-based, mice
Procedure: Mesenteric Artery Vascular Reactivity: Secondary branches of mesenteric artery were dissected and placed in chilled oxygenated (21% O2, 5% CO2, and 74% N2) Kreb's buffer. A segment (˜1 mm long) of artery was transferred to a vessel chamber (DMT), cannulated with glass micropipettes and secured with silk ligatures. The artery was slowly pressurized to 40 mmHg without flow. After 30 min equilibration, vessel viability was tested by constriction response to 100 mM KCl. Vascular responses to PE (10-9-10-5 mol/L), AVP (10-12-10-7 mol/L), and ET-1 (10-11-10-8 mol/L) were then assessed. The artery was then superfused with calcium-free Krebs buffer containing 10-5 mol/L sodium nitroprusside and 2 mmol/L EGTA to maximally dilate the vessel. Internal and external diameters were measured at 75 mm Hg. Wall thickness, media/lumen ratio and cross sectional area (CSA) were calculated as previously described by Neves, et al. (62).
(§1) Statistics: Data were analyzed by ANOVA with repeated measures as appropriate. Post-hoc analyses were performed using Bonferroni multiple-comparisons procedures. EC50 and maximum response calculations were performed by fitting individual dose-response data sets to a four-parameter logistic function (Hillslope method); y=min+([…])/(1+(x/EC50)^Hillslope). All mRNA fold changes were calculated using the Livak method (54). All analytical comparisons were performed using SigmaStat/SigmaPlot (Systat). All data are presented as mean±sem.

[2] = system: wildtype female mice (C57Bl/6 background); assay: Vasopressin infusion (24 ng/hr) throughout pregnancy, fetal and placental masses and resorption at GD18; assay type: in vivo; details: for Raw fetal mass (Fetus): individual fetuses; for Raw placental mass (Placenta): individual placentas
Procedure: Methods: Nine adult wildtype female mice were obtained from in-house breeding colonies that are based on the C57Bl/6 background strain. Three days before breeding, females were implanted with subcutaneous osmotic minipumps (Alzet) to continuously deliver arginine vasopressin (AVP, Sigma-Aldrich) at 24 ng/hr. Females were mated for two consecutive nights with wildtype male C57BL/6J males purchased from Jackson Laboratories. GD1 was defined based upon the presence of a vaginal sperm plug. On gestational day 18, female mice were sacrificed by CO2 asphyxiation, and fetuses and fetoplacental units were isolated by blunt dissection.

abdominal aorta = assay: Abdominal aortic ring vascular reactivity (organ bath); assay type: cell-based, mice; details: contractile response
Procedure: Aortic Vascular Reactivity: Abdominal aortic rings were assessed for vascular reactivity as previously described (32). Briefly, mice were euthanized by overdose of pentobarbital (50 mg, i.p.), and the abdominal aorta was quickly removed and placed in Kreb's buffer containing (in mmol/L): 118.3 NaCl, 4.7 KCl, 1.2 MgSO4, 1.2 KH2PO4, 25 NaHCO3, 2.5 CaCl2 and 11 glucose. Vascular rings (4-5 mm in length) were suspended in oxygenated Kreb's buffer (95% O2/5% CO2) in organ baths at 37° C. and connected to a force transducer via steel hooks. Resting tension was adjusted to 0.5 grams over 45 minutes. Contractile responses were tested in response to AVP (10^−10-10^−6 mol/L), phenylephrine (PE, 10^−8-3×10^−5), endothelin-1 (ET-1, 10^−10-10^−7), prostaglandin F2α (PGF2α, 10^−7-10^−4), and angiotensin II (Ang II, 10^−10-10^−7). Following sub-maximal contraction with PGF2α (40-50% of max; 3×10^−6-6×10^−6), relaxation responses to acetylcholine (10^−8-3×10^−5) and sodium nitroprusside (10^−9-10^−5) were determined.
as §1

[3] = vasopressin 240 ng/hr sc infusion vs saline
[4] = all six pregnancies, vasopressin 24 ng/hr, GD18
[5] = average of dam 200245-2 (HD4), vasopressin 24 ng/hr, GD18
[6] = average of dam 200245-4 (HD5), vasopressin 24 ng/hr, GD18
[7] = average of dam 200301-2 (HD2), vasopressin 24 ng/hr, GD18
[8] = average of dam 200301-4 (HD3), vasopressin 24 ng/hr, GD18
[9] = average of dam 200357-1 (HD6), vasopressin 24 ng/hr, GD18
[10] = average of dam 200372-3 (HD9), vasopressin 24 ng/hr, GD18
[11] = dam 200245-2 (HD4), vasopressin 24 ng/hr, GD18
[12] = dam 200245-4 (HD5), vasopressin 24 ng/hr, GD18
[13] = dam 200301-2 (HD2), vasopressin 24 ng/hr, GD18
[14] = dam 200301-4 (HD3), vasopressin 24 ng/hr, GD18
[15] = dam 200357-1 (HD6), vasopressin 24 ng/hr, GD18
[16] = dam 200372-3 (HD9), vasopressin 24 ng/hr, GD18

NC(=O)CC[C@@H]1NC(=O)[C@H](Cc2ccccc2)NC(=O)[C@H](Cc2ccc(O)cc2)NC(=O)[C@@H](N)CSSC[C@@H](C(=O)N2CCC[C@H]2C(=O)N[C@@H](CCCN=C(N)N)C(=O)NCC(N)=O)NC(=O)[C@H](CC(N)=O)NC1=O [Arginine vasopressin]
mice that became pregnant (of six) (C57Bl/6J female mice; 0.24 ng/hr infusion): two | mice that became pregnant (of six) (C57Bl/6J female mice; 2.4 ng/hr infusion): five | mice that became pregnant (of six) (C57Bl/6J female mice; 24 ng/hr infusion): three | preterm labor (C57Bl/6J female mice; 24 ng/hr vasopressin infusion group, gestational day 17): one pregnant mouse exhibited preterm labor | fetal masses (C57Bl/6J female mice; GD18, listed as Vasopressin): dose-dependent intrauterine growth restriction | fetal masses (C57Bl/6J female mice; GD18, listed as vasopressin): significantly suppressed | urine protein content (C57Bl/6J female mice; listed as Vasopressin): dose-dependent proteinuria | urine protein content (C57Bl/6J female mice; listed as vasopressin): elevated in a dose-dependent manner | placental masses (C57Bl/6J female mice; vasopressin 0.24, 2.4, 24 ng/hr, GD18): indistinguishable across treatment groups | proteinuria (C57Bl/6J mice; [3]): apparent proteinuria | rate of pregnancy (fecundity) (C57Bl/6J mice; [3]): significantly reduced the rate of pregnancy; also recorded: significantly reduced fecundity | renal cortex electron microscopy (C57Bl/6J mice; [3]): pathognomic glomerular endotheliosis | blood pressure in pregnancy (C57Bl/6J mice; vasopressin 240 ng/hr sc infusion vs saline, tail-cuff): robust increase in blood pressure; also recorded: appears to induce hypertension | fetal growth (C57Bl/6J mice; vasopressin 240 ng/hr sc infusion, gestational day 18): substantial fetal growth restriction | Maximum Response ([1]; male Control mice): 52.5 ± 3.2% | Maximum Response ([1]; male sRA mice): 17.3 ± 6.5 % | Avg mass, Fetus [2, 4]: 0.4929 g | Avg mass, Placenta [2, 4]: 0.0628 g | Resorb, total count [2, 4]: 10 | resorbed fetoplacental units [2, 4]: 17% | Avg mass, Fetus [2, 5]: 0.7741 g | Avg mass, Placenta [2, 5]: 0.0536 g | Avg mass, Fetus [2, 6]: 0.0371 g | Avg mass, Placenta [2, 6]: 0.0388 g | Avg mass, Fetus [2, 7]: 0.3741 g | Avg mass, Placenta [2, 7]: 0.0760 g | Avg mass, Fetus [2, 8]: 0.3054 g | Avg mass, Placenta [2, 8]: 0.0672 g | Avg mass, Fetus [2, 9]: 0.4660 g | Avg mass, Placenta [2, 9]: 0.0545 g | Avg mass, Fetus [2, 10]: 1.0077 g | Avg mass, Placenta [2, 10]: 0.0761 g | Raw fetal mass (Fetus) [2, 11]: 0.7964 g and 0.5962 g and 0.8258 g and 0.8183 g and 0.8336 g | Raw fetal mass (Fetus) [2, 12]: 0.0154 g and 0.0699 g and 0.0261 g | Raw fetal mass (Fetus) [2, 13]: 0.3756 g and 0.3352 g and 0.3805 g and 0.3954 g and 0.3094 g and 0.3777 g and 0.4078 g and 0.3880 g and 0.3971 g | Raw fetal mass (Fetus) [2, 14]: 0.2866 g and 0.2599 g and 0.3328 g and 0.3609 g and 0.3085 g and 0.3087 g and 0.2955 g and 0.3356 g and 0.3129 g and 0.3034 g and 0.3086 g and 0.2516 g | Raw fetal mass (Fetus) [2, 15]: 0.4865 g and 0.4962 g (2×) and 0.4780 g and 0.4092 g and 0.4543 g and 0.5241 g and 0.4999 g and 0.4399 g and 0.4501 g and 0.5057 g and 0.3521 g | Raw fetal mass (Fetus) [2, 16]: 0.9287 g and 1.0395 g and 1.1359 g and 1.0723 g and 1.0064 g and 0.9679 g and 0.9034 g | Raw placental mass (Placenta) [2, 11]: 0.0679 g and 0.0629 g and 0.0860 g and 0.0898 g and 0.0770 g and 0.0070 g and 0.0157 g and 0.0324 g and 0.0433 g | Raw placental mass (Placenta) [2, 12]: 0.0494 g and 0.0410 g and 0.0261 g and <0.01 g (5×) | Raw placental mass (Placenta) [2, 13]: 0.0687 g and 0.0810 g and 0.0828 g and 0.0796 g and 0.0638 g and 0.0840 g and 0.0936 g and 0.0477 g and 0.0827 g | Raw placental mass (Placenta) [2, 14]: 0.0315 g and 0.0762 g and 0.0747 g and 0.0876 g and 0.0710 g and 0.0789 g and 0.0620 g and 0.0687 g and 0.0669 g and 0.0714 g and 0.0640 g and 0.0529 g | Raw placental mass (Placenta) [2, 15]: 0.0599 g and 0.0709 g and 0.0663 g and 0.0509 g and 0.0480 g and 0.0648 g and 0.0767 g and 0.0678 g and 0.0426 g and 0.0471 g and 0.0569 g and 0.0499 g and 0.0067 g | Raw placental mass (Placenta) [2, 16]: 0.0725 g and 0.0866 g and 0.0753 g and 0.0810 g and 0.0706 g and 0.0702 g and 0.0766 g | fetus mass across all six pregnancies ([2]; n=48, vasopressin 24 ng/hr, GD18, P<0.0001 against 0.90 gram historical control): 0.4929±0.0397 gram/fetus | female mice that became pregnant (of nine) ([2]; vasopressin 24 ng/hr, two nights mating): Six | Maximum Response (abdominal aorta; male Control mice): 0.29 ± 0.03 g | Maximum Response (abdominal aorta; male sRA mice): 0.12 ± 0.01 g
